# “Also recorded” adds a separate entry of the source.
# How the values were obtained:
# [1] = target: T1, Chymotrypsin (Bos taurus, UniProt P00766); experiment: Chymotrypsin enzyme activity test (BTEE substrate, absorbance at 256 nm); format: biochemical, Rind; conditions: for Hemmwirkung (Minderung der Chymotrypsin-Aktivität): 25 °C
# T1 construct: Chymotrypsin entsteht im Pankreas aus inaktiven Vorstufen, sogenannten Zymogenen, durch Einwirkung von Trypsin; purchased Sigma; host or cells: bovine pancreas (Rinderpankreas)
# Excerpt: (§1) Da die hauteigenen, am Desmosomenabbau beteiligten Proteasen nicht in ausreichender Menge zur Verfügung standen, dienten die Serin-Proteasen Trypsin und Chymotrypsin (Sigma) aus Rinderpankreas als Modellenzym, um die Hemmwirkung des erfindungsgemäß verwendeten Inhibitors N-CBZ-Gly-Pro-Phe-Pro-Leu, zu testen. Als Vergleich wurde auch das als t-PA-Inhibitor (tissue-type plasminogen activator) bekannte t-AMCHA [trans-4(Aminomethyl)-cyclohexancarbonsäure] getestet.
# Der Nachweis der Chymotrypsin-Enzymaktivität erfolgt mit einer Modifikation analog zu den Angaben im Sigma Quality Control Test Procedure-Datenblatt für Chymotrypsin. Bei Ansätzen ohne Inhibitor wurden 1,42 mL Reagens A (80 mM Tris/HCl-Puffer, pH = 7,8; 25°C) zum Testansatz zugegeben. Bei Ansätzen mit Inhibitor wurden 1,32 mL Reagens A zum Testansatz zugegeben sowie 0,1 mL einer Lösung des entsprechenden Inhibitors in Reagens A (Konzentrationsreihe). Die Enzymaktivität wurde durch Umsetzung des Substrates N-Benzoyl-L-Tyrosinethylester (BTEE) zu N-Benzoyl-L-Tyrosin und Ethanol spektrophotometrisch bestimmt. Die Absorption des proteolytisch abgespaltenen N-Benzoyl-L-Tyrosins wird bei 256 nm gemessen.
# (§2) Die Reaktionskinetiken wurden je 5 Minuten bei 25 °C detektiert, wobei der lineare Anstieg der Absorption (A) pro Zeiteinheit (t) ein Maß für die Aktivität des Enzyms (ΔA/Δt) ist. Die Aktivität des Enzyms in Abwesenheit eines Proteinase-Inhibitors, (ΔA1/Δt1 ), wurde auf 100% gesetzt. Unter analogen Bedingungen wurden die Aktivitäten in Gegenwart eines Inhibitors (ΔA2/Δt2) bestimmt. Die Hemmwirkung oder Minderung der Enzymaktivität entspricht dann: 100% - (ΔA2/Δt2 )/( ΔA1/Δt1)%.
# [2] = target: T2, Trypsin (Bos taurus, UniProt P00760); experiment: Trypsin enzyme activity test (BAPNA substrate, absorbance at 405 nm); format: biochemical, Rind
# T2 construct: aus der vom Pankreas gebildeten Vorstufe Trypsinogen durch Abspaltung eines Hexapeptids entsteht; purchased Sigma; host or cells: bovine pancreas (Rinderpankreas)
# T2 sequence (P00760 24-246): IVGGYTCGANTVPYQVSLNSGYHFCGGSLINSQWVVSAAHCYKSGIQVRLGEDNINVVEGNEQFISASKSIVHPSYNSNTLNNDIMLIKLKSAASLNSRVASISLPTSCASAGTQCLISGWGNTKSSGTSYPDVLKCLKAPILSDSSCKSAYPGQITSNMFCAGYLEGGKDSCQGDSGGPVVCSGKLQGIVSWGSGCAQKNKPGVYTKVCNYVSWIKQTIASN
# Excerpt: as §1
# Auch der Nachweis der Trypsin-Enzymaktivität erfolgt mit einer Modifikation analog zu den Angaben im Sigma Quality Control Test Procedure-Datenblatt für Trypsin. Anstelle von Aprotinin (Reagens F) wurden hier die erfindungsgemäßen Inhibitoren eingesetzt. Hierfür wurde eine Konzentrationsreihe der Inhibitoren in Reagens E angesetzt. Die Enzymaktivität wurde durch Umsetzung des Substrates Nα-Benzoyl-DL-Arginin-p-Nitroanilin (BAPNA) zu Nα-Benzoyl-DL-Arginin und p-Nitroanilin spektrophotometrisch bestimmt. Die Absorption des proteolytisch abgespaltenen p-Nitroanilins wird bei 405 nm gemessen.
# as §2
# [3] = system: Desquamation des Stratum corneum; experiment: Desquamation test on human skin biopsies (detergent-induced corneocyte shedding, corneocyte count); format: cell-based
# Excerpt: Aus frischen Humanhautexplantaten (aus Mammareduktion) wurden 8mm^2-große Hautstücke ausgestanzt und mit einer Mischung aus Detergentien (Na-Dodecylsulfat, N,N-Dimethyldodecylaminoxid) in Abwesenheit und in Gegenwart der Inhibitoren behandelt. Unter dem Einfluß der Detergentien wird eine verstärkte Abschuppung (Desquamation) der Homschicht (Stratum corneum) künstlich induziert, also die Ausbildung trockener Haut im Versuch nachgeahmt. Die Anzahl abgeschuppter Hornzellen (Korneozyten) wurde unter dem Mikroskop in einer Schilling-Zählkammer bestimmt. Eine Verringerung der Korneozytenzahl weist auf eine hemmende Wirkung der getesteten potentiellen Inhibitoren hin.
# Die Inhibitoren wurden in den entsprechenden Konzentrationen (vgl. Tabellen der Beispiele 7-12) im Inkubationspuffer angesetzt. Dieser bestand aus 0,1 M TRIS-HCl-Puffer (pH 8) mit 0,1 Gew.% Na-Azid und den Detergenzien Na-Dodecylsulfat (0,2 mM) und N,N-Dimethyldodecylaminoxid (8 mM) sowie EDTA (5 mM). Diese Inkubationspufferlösungen mit variierender Konzentration des Inhibitors werden nachfolgend als Testlösungen bezeichnet.
# Es wurden zwei Arten von Blindkontrollen durchgeführt, eine Positiv- und eine Negativkontrolle. Für die sogenannte Positivkontrolle wurde nur der Inkubationspuffer verwendet, d. h. ohne Zusatz der Inhibitoren. Für die sogenannte Negativkontrolle wurde eine 5 mM Lösung von EDTA in TRIS-HCl-Puffer eingesetzt, d. h. ohne Zusatz der Detergentien.
# Pro Reaktionsansatz wurden 0,5 mL der jeweiligen Testlösung oder des für die Blindkontrollen verwendeten Puffergemisches in verschließbaren Reaktionsgefäßen vorgelegt. Alle Ansätze wurden in vierfacher Ausfertigung durchgeführt, um die Reproduzierbarkeit der Ergebnisse zu gewährleisten.
# Die Humanhaut wurde nach der Explantation in einer trockenen, sterilen Petrischale auf Kühlakkus transportiert. Nach Entfernung des Unterhautfett- und des Bindegewebes wurden mit Hilfe von sterilen Stanzen 8 mm^2-große Hautstücke präpariert. Diese wurden 15-20 min in steriler, physiologischer NaCl (0,9 %) gewaschen, zu den Reaktionsansätzen gegeben (1 Hautstück/Reaktionsansatz) und 44 Stunden bei 37° C inkubiert.
# Nach Beendigung der Inkubationsphase wurden die Reaktionsgefäße 30 Sekunden auf einem Vortex-Mixer geschüttelt, um noch lose anhaftende Komeozyten von den Hautstücken abzulösen. Die Hautstücke wurden entnommen und die verbleibende Dispersion wurde 8 Minuten bei 11.000U/min zentrifugiert, um die Korneozyten zu isolieren. Der detergenshaltige Überstand (0,4 mL) wurde verworfen und der Rückstand mit 0,4 ml Aqua dest. gewaschen. Nach nochmaligem Zentrifugieren wurde der Überstand (0.4 mL) wiederum verworfen, das verbleibende Zellpellet in 0,4 mL Aqua dest. aufgenommen und die abgelösten Korneozyten in einer Schillingzählkammer unter einem Lichtmikroskop ausgezählt.
# Nachfolgende Tabellen geben eine Zusammenstellung über die Anzahl abgelöster Korneozyten: • nach Behandlung der Haut-Biopsien mit einem Detergentiengemisch in Abwesenheit der Inhibitoren (Positivkontrolle) • nach Behandlung der Haut-Biopsien mit einer Pufferlösung in Abwesenheit der Detergentien und Inhibitoren (Negativkontrolle) • nach Behandlung der Haut-Biopsien mit einem Detergentiengemisch, welches die Inhibitoren in variierender Konzentration enthält.
# [4] = result in words over the tested concentration range
compound,measurement,setting,value
"NC[C@H]1CC[C@H](C(=O)O)CC1 [t-AMCHA, trans-4(Aminomethyl)-cyclohexancarbonsäure]",Hemmwirkung (Minderung der Chymotrypsin-Aktivität),"[1]; inhibitor concentration 0,01 % (w/v)",keine Hemmwirkung messbar
same,Hemmwirkung (Minderung der Chymotrypsin-Aktivität),"[1]; inhibitor concentration 0,1 % (w/v)","- "" -"
same,Hemmwirkung (Minderung der Chymotrypsin-Aktivität),"[1]; inhibitor concentration 0,05 % (w/v)","- "" -"
same,Hemmwirkung (Minderung der Chymotrypsin-Aktivität),"[1]; inhibitor concentration 0,5 % (w/v)","- "" -"
same,Hemmwirkung (Minderung der Chymotrypsin-Aktivität),"[1]; inhibitor concentration 1,0 % (w/v)","- "" -"
same,Hemmung von Chymotrypsin,[1]; [4],nicht beeinträchtigt
same,inhibition at 0.1 %,"[2]; 5 min, inhibitor concentration 0,1 % (w/v), 25 °C, read-out: Hemmwirkung (Minderung der Trypsin-Aktivität)",51%
same,inhibition at 0.05 %,"[2]; 5 min, inhibitor concentration 0,05 % (w/v), 25 °C, read-out: Hemmwirkung (Minderung der Trypsin-Aktivität)",36%
same,inhibition at 0.5 %,"[2]; 5 min, inhibitor concentration 0,5 % (w/v), 25 °C, read-out: Hemmwirkung (Minderung der Trypsin-Aktivität)",85%
same,inhibition at 1 %,"[2]; 5 min, inhibitor concentration 1,0 % (w/v), 25 °C, read-out: Hemmwirkung (Minderung der Trypsin-Aktivität)",93%
same,Hemmwirkung (Minderung der Trypsin-Aktivität),"[2]; inhibitor concentration 0,01 % (w/v), 25 °C",9%
same,Hemmung von Trypsin,[2]; [4],in Abhängigkeit von der Inhibitor-Konzentration beeinträchtigt
same,activity at 0.5 %,"[3]; Homo sapiens, pH 8, inhibitor 0,5 % (w/v), corneocyte count, positive control = 100 %, 44 h, 37° C, read-out: Desquamation an Humanhaut ex vivo",51.3%
same,activity at 1 %,"[3]; Homo sapiens, pH 8, inhibitor 1,0 % (w/v), corneocyte count, positive control = 100 %, 44 h, 37° C, read-out: Desquamation an Humanhaut ex vivo",44%
same,activity at 2.5 %,"[3]; Homo sapiens, pH 8, inhibitor 2,5 % (w/v), corneocyte count, positive control = 100 %, 44 h, 37° C, read-out: Desquamation an Humanhaut ex vivo",37.1%
same,Desquamation der Humanhaut (Korneozyten-Abschuppung),[3]; [4],Desquamationsinhibitor mit konzentrationsabhängigem Profil; also recorded: signifikant reduziert

# From EP1222242B1, “CLEANING AGENTS WHICH CONTAIN SURFACTANTS AND ENZYME INHIBITORS” (Henkel Kommanditgesellschaft auf Aktien, priority 1999, dated 2001)
